These results are taken from patent publication US6342602B1, “Aryl or heteroaryl amides of tetrahydronaphthalene, chroman, thichroman and 1,2,3,4-tetrahydroquinolinecarboxlic acids, having an electron withdrawing substituent in the aromatic or heteroaromatic moiety, having retinoid-like biological activity” (Allergan Sales, Inc., priority 1995, dated 2002).

SMILES strings stand for the structures.

One assay has as its system RPMI 8226. In words: Cancer cell line assay, incorporation of 3H-thymidine. It is filed as cell-based, human. The following applies: 10^−11 to 10^−6 molar concentration range, 96 hours. How it is done:
(§1) All trans-Retinoic acid (t-RA) (Sigma Chemicals Co., St. Louis, M.) was stored at −70° C. Prior to each experimet the compound was dissolved in 100% ethanol at 1 mM and diluted in culture medium immediately before use. All experiments were performed in subdued light. Controls were assayed using the same concentration of ethanol as present in the experimental plates and this concentration of diluent had no effect in either assay.
All cell lines, RPMI 8226, ME-180 and AML-193 were obtained from the American Type Culture Collection (ATCC, Rockville, Md.). RPMI 8226 is a human hematopoietic cell line obtained from the peripheral blood of a patient with multiple myeloma. The cells resemble the lymphoblastoid cells of other human lymphocyte cell lines and secrete […] light chains of immunoglobulin. RPMI-8226 cells are grown in RPMI medium (Gibco) supplemented with 10% fetal bovine serum, glutamine and antibiotics. The cells were maintained as suspension cultures grown at 37° C. in a humidified atmosphere of 5% CO2 in air. The cells were diluted to a concentration of 1×10^5/ml twice a week.
The method used for determination of the incorporation of radiolabeled thymidine was adapted from the procedure described by Shrivastav et al. RPMI-8226 cells were plated in a 96 well round bottom microtiter plate (Costar) at a density of 1,000 cells/well. To appropriate wells, retinoid test compounds were added at the final concentrations indicated for a final volume of 150 μl/well. The plates were incubated for 96 hours at 37° C. in a humidified atmosphere of 5% CO2 in air. Subsequently, 1 μCi of (5′-^3H]-thymidine (Amersham, U.K. 43 Ci/mmol specific activity) in 25 μl culture medium was added to each well and the cells were incubated for an additional 6 hours. The cultures were further processed as described below.
(§2) All cells lines were then processed as follows: the cellular DNA was precipitated with […] trichloroacetic acid onto glass fiber filter mats using a SKATRON multi-well cell harvester (Skatron Instruments, Sterling Va.). Radioactivity incorporated into DNA, as a direct measurement of cell growth, was measured by liquid scintillation counting. The numbers represent the mean disintegrations per minute of incorporated thymidine from triplicate wells±SEM.

In another assay the test system is ME-180. Described as above. As to conditions: 10^−11 to 10^−6 molar concentration range, 96 hours. It is filed as cell-based, human. How it is done: as §1
ME-180 is a human epidermoid carcinoma cell line derived from the cervix. The tumor was a highly invasive squamous cell carcinoma with irregular cell clusters and no significant keratinization. ME-180 cells were grown and maintained in McCoy's 5a medium (Gibco) supplemented with 10% fetal bovine serum, glutamine and antibiotics. The cells were maintained as monolayer cultures grown at 37° C. in a humidified atmosphere of 5% CO2 in air. The cells were diluted to a concentration of 1×10^5/ml twice a week.
ME-180 wells, harvested by trypsinization were plated in a 96 well flat bottom microtiter plate (Costar) at a density of 2,000 cells/well. The cultures were treated as described above for RPMI 8226 with the following exceptions. After incubation with thymidine the supernatant was carefully removed, and the cells were washed with a 0.5 mM solution of thymidine in phosphate buffered saline. ME180 cells were briefly treated with 50 μl of 2.5% trypsin to dislodge the cells from the plate. AML-193 cells were plated in a 96 well round bottom microtiter plate (Costar) at a density of 1,000 cells/well. To appropriate wells, retinoid test compounds were added at the final concentrations indicated for a final volume of 150 μl/well. The plates were incubated for 96 hours at 37° C. in a humidified atmosphere of 5% CO2 in air. Subsequently, 1 μCi of [5′-^3H]-thymidine (Amersham, U.K., 43 Ci/mmol specific activity) in 25 μl culture medium was added to each well and the cells were incubated for an additional 6 hours.
as §2

With `CC1(C)CC(C)(C)c2cc(C(=O)Nc3ccc(C(=O)O)c(F)c3)cc(I)c2O1` [Compound 20], the “proliferation of the tumor cell line (incorporation of radioactive labeled thymidine)” value (shortened to “proliferation of the tumor cell line”) with RPMI 8226 and with ME-180 was “significant decrease in the proliferation” in each case.

As to `CC1(C)CC(C)(C)c2cc(C(=O)Nc3ccc(C(=O)O)c(F)c3)cc(C(F)(F)F)c2O1` [Compound 14], the “proliferation of the tumor cell line” value with RPMI 8226 and in the assay with ME-180 was “significant decrease in the proliferation” in each case.

On to `CC1(C)CCC(C)(C)c2c(Br)cc(C(=O)Nc3ccc(C(=O)O)c(F)c3)cc21` [Compound 6], for which the “proliferation of the tumor cell line” value in the assay with RPMI 8226 and in the assay with ME-180 was “significant decrease in the proliferation” each time.

On to `CC1(C)CCC(C)(C)c2cc(C(=O)Nc3ccc(C(=O)O)c(F)c3)c(O)cc21` [Compound 8], for which the “proliferation of the tumor cell line” value in the assay with RPMI 8226 and with ME-180 was “significant decrease in the proliferation” throughout.

`CC1(C)CC(C)(C)c2cc(C(=O)Nc3ccc(C(=O)O)c(F)c3)cc(Br)c2O1` [Compound 12]: the “proliferation of the tumor cell line” value in the assay on RPMI 8226 and in the assay on ME-180 was “significant decrease in the proliferation” throughout.
